Results as given in patent US5811278A, “Dipeptidyl peptidase IV from Xanthomonas maltophilia and process for producing the same” (Ajinomoto Co., Inc., priority 1995, dated 1998).
Like-named read-outs stand apart in the source and are kept apart here. Where a SMILES comes first, the peptide text is derived from it. The star is where a group is joined. βNA = c1ccc2cc(N*)ccc2c1

Columns and labels:
Format in all cases: biochemical
[1] = molecular target: T1, dipeptidyl peptidase IV obtainable from Xanthomonas maltophilia (Stenotrophomonas maltophilia, UniProt P95782); assay: Substrate specificity for low molecular weight synthetic peptide substrates; conditions: for activity at 500 µM: read-out: Relative activity (%)
Method: In the present invention, the dipeptidyl peptidase IV activity was measured according to the method of Yoshimoto et al. (J. Biochem., 91:1899-1906 (1982)).
The used substrates are shown in Table 1, and the concentration thereof was 0.5 mM.
Using Gly-Pro-β-naphthylamide as the substrate, 0.1 ml of 5 mM Gly-Pro-β-naphthylamide and 0.1 ml of an enzyme solution were added to 0.8 ml of 20 mM Tris-HCl buffer (pH 8.0) containing 5 mM EDTA and allowed to react with each other at 37° C. for 5 minutes, the reaction was terminated by adding 0.5 ml of Fast Garnet GBC (0.1% solution prepared by dissolving it in 1M acetate buffer (pH 4.0) containing 10% Triton X-100) and then absorbance at 550 nm was measured.

[2] = molecular target: T1, dipeptidyl peptidase IV obtainable from Xanthomonas maltophilia; assay: Influence of metal ions on the enzyme activity; conditions: substrate Gly-Pro-β-naphthylamide; for Relative activity (%): metal ion 1 mM, control 100
Target sequence in this assay (P95782 21-741 limits assumed): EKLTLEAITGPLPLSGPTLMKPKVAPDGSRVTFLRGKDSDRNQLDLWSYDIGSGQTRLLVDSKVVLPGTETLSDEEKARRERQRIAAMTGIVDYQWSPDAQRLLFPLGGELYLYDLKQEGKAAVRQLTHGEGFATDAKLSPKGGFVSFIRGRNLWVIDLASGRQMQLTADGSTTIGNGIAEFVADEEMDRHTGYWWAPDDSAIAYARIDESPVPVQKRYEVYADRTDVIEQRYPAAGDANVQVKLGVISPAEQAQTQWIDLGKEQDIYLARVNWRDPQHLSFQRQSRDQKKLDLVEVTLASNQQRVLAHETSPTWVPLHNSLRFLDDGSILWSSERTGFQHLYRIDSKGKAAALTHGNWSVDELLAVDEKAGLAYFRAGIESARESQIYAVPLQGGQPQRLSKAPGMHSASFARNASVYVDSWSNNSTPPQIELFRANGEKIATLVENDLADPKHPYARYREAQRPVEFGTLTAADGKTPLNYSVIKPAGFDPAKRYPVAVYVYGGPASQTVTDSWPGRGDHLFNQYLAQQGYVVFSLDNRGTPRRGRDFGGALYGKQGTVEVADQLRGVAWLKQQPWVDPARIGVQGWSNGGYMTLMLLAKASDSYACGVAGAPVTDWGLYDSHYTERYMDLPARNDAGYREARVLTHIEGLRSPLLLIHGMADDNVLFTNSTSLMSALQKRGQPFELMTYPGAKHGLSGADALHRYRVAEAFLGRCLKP

[3] = molecular target: T1, dipeptidyl peptidase IV obtainable from Xanthomonas maltophilia; assay: biochemical
Target sequence in this assay (P95782 21-741 limits assumed): as above

[4] = hydrolysis of the substrate by the enzyme, substrate concentration 0.5 mM

Compound: Gly--Pro--Ala
- Relative activity (%) [1, 4]: 40%

Compound: NCC(=O)N1CCC[C@H]1C(=O)Nc1ccc2ccccc2c1 [Gly--Pro-β-naphthylamide, Gly-Pro-β-naphthylamide] (H-Gly-Pro-βNA)
- activity at 500 µM [1, 4]: 100%

Compound: [Cl][Ni][Cl] [NiCl2]
- Relative activity (%) [2]: 100%

Compound: C[C@H](N)C(=O)N1CCC[C@H]1C(=O)Nc1ccc2ccccc2c1 [Ala--Pro-β-naphthy1amide] (H-Ala-Pro-βNA)
- activity at 500 µM [1]: 105%

Compound: O=C(O)c1cc[c]([Hg][Cl])cc1 [PCMB]
- Relative activity (%) [3]: 96%

Compound: C[C@H](N)C(=O)N[C@@H](C)C(=O)Nc1ccc2ccccc2c1 [Ala--Ala-β-naphthylamide] (H-Ala-Ala-βNA)
- activity at 500 µM [1, 4]: 100%

Compound: [Cl-].[Cl-].[Zn+2] [ZnCl2]
- Relative activity (%) [2]: 95%

Compound: Gly--Pro--Leu--Gly (GPLG; printed: Gly--Pro--Leu--Gly)
- Relative activity (%) [1, 4]: 50%

Compound: [Cl][Hg][Cl] [HgCl2]
- Inhibition of the enzyme activity by metal ion (in words) ([2]; 1 mM): inhibited by HgCl2 almost completely
- Relative activity (%) [2]: 0%

Compound: O=C(O)CN(CCN(CC(=O)O)CC(=O)O)CC(=O)O [EDTA]
- activity at 5000 µM ([3]; read-out: Relative activity (%)): 100%
